# In patent US20260224675A1, “METHOD OF INHIBITING DEGRADING PROTEASE ACTIVITY IN THE SKIN” (The Regents of the University of California, priority 2023, published 2026):
# How the values were obtained:
# Format in all cases: in vivo
# [1] = system: amylase; test: Pancreatic amylase accumulation in rat small intestine, immunohistochemistry; details: old rats, oral, two weeks; increase in old vs young rats
# Text: (§1) Male Wistar rats (Harlan Sprague Dawley Inc., Indianapolis, IN) at maturity (4 months, 300 to 350 gm) and old age (24 months, 375 to 450 gm) were included in the study. The animals were maintained on standard laboratory chow (8604 Teklad rodent diet; Harlan Laboratories, Indianapolis, IN) without restriction and water ad libitum and maintained in separated room without pathogen-free conditions. […] A subgroup of old animals was given over two weeks a pancreatic serine protease (trypsin) inhibitor (tranexamic acid, 14 days) in drinking water (137 mM, exchanged daily) which at a minimum fluid consumption of 40 ml/day amounts to a minimum dose of 0.39 gm/kg/day for 350 gm body weight.
# (§2) Small intestine: Full thickness tissue blocks of the wall of proximal jejunum (3 by 5 mm) were fixed from all sides in 10% formaldehyde. Pancreatic trypsin and amylase were detected with primary (MoAb (D-1) and MoAb (G-10), respectively), and secondary antibodies labeled with DAB (Peroxidase Substrate Kit, ab64238, ABCAM).
# (§3) Images of the immunolabel density were recorded from low power overviews of the tissue (10× objective, numerical aperture 0.25) under standard light conditions. Images were digitally analyzed to minimize operator error (NIH Image, 1.61, public domain software, spatial resolution of 640×480 pixel). […]
# [2] = system: pancreatic trypsin; test: Pancreatic trypsin accumulation in rat small intestine, immunohistochemistry; details: old rats, oral, two weeks; increase in old vs young rats
# Text: as §1, §2, §3
# [3] = system: collagen; test: Rat skin tissue collagen fragmentation, collagen hybridizing peptide (B-CHP) labeling; details: old rats, two weeks
# Text: as §1, with “weight. […]” for “weight.”
# Tissue sections were stained with B-CHP (stock solution, 150 mM; final applied solution 7.5. mM). […] The B-CHP label intensity on the sections was recorded by digital microscopy.
# (§4) Images of the immunolabel density were recorded from low power overviews of the tissue (10× objective, numerical aperture 0.25) under standard light conditions. Images were digitally analyzed to minimize operator error (NIH Image, 1.61, public domain software, spatial resolution of 640×480 pixel).
# The intensity of the immune substrate label was measured after color extraction in form of light intensity (1 corresponding to white, 256 corresponding to black). […]
# [4] = system: mucin coat in the small intestine; test: Mucin coat in rat small intestine, alcian blue labeling; details: old rats (104 weeks), oral in drinking water, two weeks, vs old non-treated
# Text: as §1, with “weight. […]” for “weight.”
# as §4
# The intensity of the immune substrate label was measured after color extraction in form of light intensity (1 corresponding to white, 256 corresponding to black). The mean label density per group (with 3 animals per group) was determined from the average label density per animal (determined from 5 tissue sections/animal, 30 images/section).
# [5] = system: pancreatic trypsin; test: Pancreatic trypsin accumulation in rat skin tissue, immunohistochemistry; details: old rats, two weeks
# Text: as §1, with “weight. […]” for “weight.”
# To determine on the tissue sections the immunolabel density and distribution of pancreatic serine proteases, pancreatic trypsin MoAb (D-1): sc-137077(Santa Cruz) primary antibody was used, followed by secondary antibodies (MP-7601 for anti-rabbit IgG; MP-7602 for anti-mouse IgG; ImmPRESS Excel staining kit peroxidase). […] No counterstain was applied to facilitate quantitative label intensity measurements and since cellular and vascular structures are readily identified. […] All procedures were carried out under standardized conditions to permit quantitative comparison of label densities. […]
structure (smiles),measurement,setting,value
NC[C@H]1CC[C@H](C(=O)O)CC1 [tranexamic acid],amylase label density in the small intestine,[1],attenuated
same,pancreatic trypsin label density in the small intestine,[2],attenuated
same,collagen fragmentation in skin tissue (CHP),[3],prevents collagen fragmentation
same,mucin coat in the small intestine (alcian blue label),[4],restoration of the mucin coat
same,pancreatic trypsin accumulation in skin tissue,[5],prevents trypsin accumulation
